Experimental data from patent US20220162215A1, “COMPOSITIONS AND METHODS OF USING THE SAME FOR TREATMENT OF NEURODEGENERATIVE AND MITOCHONDRIAL DISEASE” (MITOKININ, INC., priority 2019, published 2022).
Where two headings read alike, the source gives them in different places.

What was measured:
HeLa MKYP cells [1] = assay: Human mitophagy assay (HeLa MKYP, mtKeima FACS, FCCP/oligomycin); type: cell-based; details: for Potency at 1 μM F/O toxin: Table 1; for Potency at 1 μM F/O toxin / activation at 6.3 µM: % activation of mitophagy at 6.3 μM treatment of the compound; for activation at 6.3 µM / activation at 1.6 µM: 6 h, read-out: Potency at 1 μM F/O toxin*; for Potency at 1 μM F/O toxin* / activation at 1.6 µM: Table 2, % activation of mitophagy at 1.6 μM treatment of the compound
Description: (§1) Briefly, HeLa MKYP cells were plated at 10,000 cells/well in 96 well plates along with compounds at various concentrations. Following 16 hrs of incubation, cells were treated with 1 uM FCCP/oligomycin for 6 hours, then analyzed via FACS for the presence of mitochondria in lysosomes (as determined by an emissions spectrum shift from the pH-sensitive mtKeima tag). Examples are shown in FIG. 1 through FIG. 13 below.

HeLa MKYP cells [2] = assay: Toxicity / cell death measured by DAPI staining (take-up); type: cell-based; details: for Toxicity (% positive for DAPI take-up @ 50 μM): Table 1; for Toxicity (% positive for DAPI take-up at 50 μM)*: Table 3 Supplement A
Description: H2O2 treatment was performed as a control for cell death as measured by DAPI staining.
as §1, with “tag).” for “tag). Examples are shown in FIG. 1 through FIG. 13 below.”

[3] = Homo sapiens, HeLa, Table 3, read-out: Potency at 1 μM F/O toxin* (EC50 of mitophagy activation)
[4] = Homo sapiens, HeLa, Table 3 Supplement A, as measured in Table 3, read-out: Potency (EC50 Max Mitophagy) (μM)*

| SMILES | EC50 (HeLa MKYP cells [1]; [3]) | Toxicity (% positive for DAPI takeup @ 50 μM) (HeLa MKYP cells [2]; Table 3) | EC50 (HeLa MKYP cells [1]; [4]) | Toxicity (% positive for DAPI take-up at 50 μM)* (HeLa MKYP cells [2]) | also measured |
| --- | --- | --- | --- | --- | --- |
| c1ccc2c(c1)OCC[C@H]2Nc1ncnc2[nH]c(C3CC3)cc12 [Compound 111] | 2 µM | 17.3% | – | – | EC50 (HeLa MKYP cells [1]; Homo sapiens, HeLa, Table 3 Supplement B, read-out: Mitophagy EC50 (HeLa mKeima assay)): 1.98 µM; Max cell death at 25 uM compound, 1 uM FO (HeLa MKYP cells [2]; Table 3 Supplement B, 25 uM compound, 1 uM FO): 17.3%; Cell death at 25 μM (no FO) (HeLa MKYP cells [2]; Table 3 Supplement B, 25 μM, no FO): 7.26% |
| CCCCNc1ncnc2[nH]c(CC(F)(F)F)cc12 [Compound 4] | – | – | – | – | Potency at 1 μM F/O toxin (HeLa MKYP cells [1]): 13.9%; Toxicity (% positive for DAPI take-up @ 50 μM) (HeLa MKYP cells [2]): 24.8% |
| FC(F)(F)c1cc2c(NCc3cccc(Cl)c3)ncnc2[nH]1 [Compound 25] | – | 20.3% | – | – | activation at 6.3 µM (HeLa MKYP cells [1]; Homo sapiens, HeLa, Table 3): 49.9% |
| c1ccc2c(c1)OCC[C@H]2Nc1ncnc2[nH]cnc12 [Compound 62] | > 50 µM | 16.0% | > 25 µM | 15.96% | – |
| OC[C@@H](Nc1ncnc2[nH]c(C(F)(F)F)cc12)c1ccccc1 [Compound 77] | 4.4 µM | 30.3% | 4.41 µM | 30.27% | – |
| CCCCNc1ncnc2[nH]c(C)cc12 [Compound 8] | – | – | – | – | Potency at 1 μM F/O toxin (HeLa MKYP cells [1]): 43.4%; Toxicity (% positive for DAPI take-up @ 50 μM) (HeLa MKYP cells [2]): 15.4% |
| c1coc(CNc2ncnc3[nH]c(C4CCC4)nc23)c1 [EP-0035338, 8-cyclobutyl-N-(2-furylmethyl)-9H-purin-6-amine] | – | – | > 25 µM | 3.04% | – |
| FC(F)(F)c1cc2c(N[C@@H]3COc4ccccc43)ncnc2[nH]1 [Compound 41] | 14.9 µM | 29.2% | 14.9 µM | 29.25% | – |
| OC[C@@H](Nc1ncnc2[nH]cnc12)c1ccccc1 [Compound 61] | > 50 µM | 8.9% | > 25 µM | 8.9% | – |
| COc1ncccc1CNc1ncnc2[nH]c(C(F)(F)F)cc12 [Compound 22] | – | 7.6% | – | – | activation at 6.3 µM (HeLa MKYP cells [1]; Homo sapiens, HeLa, Table 3): 18.5% |
| FC(F)(F)c1cc2c(NCc3cnccn3)ncnc2[nH]1 [Compound 21] | – | 0.9% | – | – | activation at 6.3 µM (HeLa MKYP cells [1]; Homo sapiens, HeLa, Table 3): 9.1% |
| Fc1cc(Cl)cc(CNc2ncnc3[nH]c(C(F)(F)F)cc23)c1 [Compound 24] | – | 4.8% | – | – | activation at 6.3 µM (HeLa MKYP cells [1]; Homo sapiens, HeLa, Table 3): 51.2% |
| CCCCNc1ncnc2[nH]c(C3CCC3)nc12 [EP-0035339, N-butyl-8-cyclobutyl-9H-purin-6-amine] | – | – | > 25 µM | 6.13% | – |
| c1ccc2c(c1)CC[C@@H]2Nc1ncnc2[nH]cnc12 [Compound 54] | 4.4 µM | 16.2% | 4.38 µM | 16.16% | – |
| C[C@H](Nc1ncnc2[nH]c(C(F)(F)F)cc12)c1ccccc1 [Compound 40] | 0.3 µM | 90.8% | 0.02 µM | 92.03% | – |
| FC(F)(F)c1cc2c(NCc3ccncn3)ncnc2[nH]1 [Compound 20] | – | 1.5% | – | – | activation at 6.3 µM (HeLa MKYP cells [1]; Homo sapiens, HeLa, Table 3): 7.9% |
| FC(F)(F)c1cc2c(NC3CCc4ccccc43)ncnc2[nH]1 (stereo not drawn) [Compound 18] | – | – | – | – | Potency at 1 μM F/O toxin* (HeLa MKYP cells [1]): 14.3%; Toxicity (% positive for DAPI takeup @ 50 μM) (HeLa MKYP cells [2]; Table 2): 1.7% |
| FC(F)(F)c1cc2c(N[C@H]3CCOc4ccccc43)ncnc2[nH]1 [Compound 42] | 5.6 µM | 37.7% | 5.64 µM | 37.66% | – |
| c1ncc(CNc2ncnc3[nH]c(C4CC4)nc23)cn1 [Compound 36] | > 50 µM | – | – | – | Toxicity (% positive for DAPI takeup @ 50 μM) (HeLa MKYP cells [2]; human): 7.1% |
| FC(F)(F)c1cc2c(NC3CCCc4ccccc43)ncnc2[nH]1 (stereo not drawn) [Compound 16] | – | – | – | – | Potency at 1 μM F/O toxin* (HeLa MKYP cells [1]): 10.1%; Toxicity (% positive for DAPI takeup @ 50 μM) (HeLa MKYP cells [2]; Table 2): 4.5% |
| Fc1cccc(CNc2ncnc3[nH]c(C(F)(F)F)cc23)c1Cl [Compound 23] | – | 4.5% | – | – | activation at 6.3 µM (HeLa MKYP cells [1]; Homo sapiens, HeLa, Table 3): 87.7% |
| CCCCNc1ncnc2[nH]c(C(OCC)C(F)(F)F)cc12 (stereo not drawn) [Compound 3] | – | – | – | – | Potency at 1 μM F/O toxin (HeLa MKYP cells [1]): 25.9%; Toxicity (% positive for DAPI take-up @ 50 μM) (HeLa MKYP cells [2]): 15.8% |
| CC(Nc1ncnc2[nH]c(C(F)(F)F)cc12)c1ccccc1 (stereo not drawn) [Compound 12] | – | – | – | – | activation at 1.6 µM (HeLa MKYP cells [1]; Homo sapiens, HeLa): 88.4%; Toxicity (% positive for DAPI takeup @ 50 μM) (HeLa MKYP cells [2]; Table 2): 2.4% |

| SMILES | EC50 (HeLa MKYP cells [1]; [3]) | Toxicity (% positive for DAPI takeup @ 50 μM) (HeLa MKYP cells [2]; Table 3) | EC50 (HeLa MKYP cells [1]; [4]) | Toxicity (% positive for DAPI take-up at 50 μM)* (HeLa MKYP cells [2]) | also measured |
| --- | --- | --- | --- | --- | --- |
| FC(F)(F)c1cc2c(NC3CCOc4ccccc43)ncnc2[nH]1 (stereo not drawn) [Compound 33] | 3.5 µM | 22.3% | – | – | – |
| CC(CNc1ncnc2[nH]cnc12)c1ccccc1 (stereo not drawn) [Compound 65] | 3.6 µM | 28.9% | 3.61 µM | 28.92% | – |
| FC(F)(F)c1cc2c(NCc3cncnc3)ncnc2[nH]1 [Compound 19] | – | – | – | – | activation at 6.3 µM (HeLa MKYP cells [1]; Homo sapiens, HeLa, Table 3): 50.3%; Toxicity (% positive for DAPI takeup @ 50 μM) (HeLa MKYP cells [2]; human): 1.7% |
| FC(F)(F)c1cc2c(NC3CCCc4ccccc43)ncnc2[nH]1 (stereo not drawn) [Compound 32] | > 50 µM | 27.1% | – | – | – |
| O=S1(=O)Cc2ccccc2C(Nc2ncnc3[nH]c(C(F)(F)F)cc23)C1 (stereo not drawn) [Compound 79] | > 50 µM | 13.2% | > 25 µM | 13.18% | – |
| c1ccc2c(c1)OCC2Nc1ncnc2[nH]cnc12 (stereo not drawn) [Compound 53] | 6.1 µM | 21.0% | 6.11 µM | 20.95% | – |
| CCCCNc1ncnc2[nH]c(C(F)(F)F)cc12 [Compound 1] | – | – | – | – | Potency at 1 μM F/O toxin (HeLa MKYP cells [1]): 42.3%; Toxicity (% positive for DAPI take-up @ 50 μM) (HeLa MKYP cells [2]): 4.6% |
| c1coc(CNc2ncnc3[nH]c(C4CCC4)nc23)c1 [Compound 30] | > 50 µM | 3.0% | – | – | – |
| FC(F)(F)c1cc2c(N[C@H]3COc4ccccc43)ncnc2[nH]1 [Compound 39] | 1.4 µM | 22.8% | 1.49 µM | 27.32% | – |
| C[C@@H](Nc1nccc2[nH]cnc12)c1ccccc1 [Compound 64] | > 50 µM | 7.6% | > 25 µM | 7.63% | – |
| COc1cc(CNc2ncnc3[nH]c(C4CC4)nc23)ccn1 [EP-0036032, 8-cyclopropyl-N-[(2-methoxy-4-pyridyl)methyl]-9H-purin-6-amine] | – | – | > 25 µM | 7.06% | – |
| c1ccc(CCNc2ncnc3[nH]cnc23)cc1 [Compound 60] | 2.8 µM | 19.7% | 2.26 µM | 23.09% | – |
| C[C@@H](Nc1ncnc2[nH]cnc12)c1ccccc1 [Compound 63] | – | 11.5% | – | – | EC50 (HeLa MKYP cells [1]; Table 3, read-out: Potency at 1 μM F/O toxin* (EC50 of mitophagy activation)): 47.4 µM; EC50 (HeLa MKYP cells [1]; Table 3 Supplement A, as measured in Table 3, read-out: Potency (EC50 Max Mitophagy) (μM)*): > 25 µM; Toxicity (% positive for DAPI take-up at 50 μM)* (HeLa MKYP cells [2]; listed as EP-0036422): 11.51% |
| FC(F)(F)c1cc2c(NC3CCc4ccccc43)ncnc2[nH]1 (stereo not drawn) [Compound 17] | – | – | – | – | activation at 1.6 µM (HeLa MKYP cells [1]; Homo sapiens, HeLa): 14.8%; Toxicity (% positive for DAPI takeup @ 50 μM) (HeLa MKYP cells [2]; Table 2): 2.3% |
| OC[C@H](Nc1ncnc2[nH]c(C(F)(F)F)cc12)c1ccccc1 [Compound 76] | 14.7 µM | 30.4% | 14.7 µM | 30.45% | – |
| c1ccc(C2(Nc3ncnc4[nH]cnc34)CC2)cc1 [Compound 72] | > 50 µM | 13.4% | > 25 µM | 13.38% | – |
| c1ccc2c(c1)CC[C@H]2Nc1ncnc2[nH]cnc12 [Compound 55] | > 50 µM | 10.3% | > 25 µM | 10.31% | – |
| FC(F)(F)c1cc2c(NC3CCCc4ncncc43)ncnc2[nH]1 (stereo not drawn) [Compound 45] | > 50 µM | 12.0% | > 25 µM | 11.97% | – |
| C[C@H](Nc1ncnc2[nH]c(C3CC3)nc12)c1ccccc1 [Compound 46] | 3.2 µM | 27.6% | 3.17 µM | 27.61% | – |
| CN1CC[C@H](Nc2ncnc3[nH]c(C(F)(F)F)cc23)c2ccccc21 [Compound 80] | 1.9 µM | 28.1% | 1.81 µM | 8.7% | – |
| Cc1nc2c(N[C@H](C)c3ccccc3)ncnc2[nH]1 [Compound 73] | > 50 µM | 9.7% | > 25 µM | 9.69% | – |
| FC(F)(F)c1cc2c(NC3COc4ccccc43)ncnc2[nH]1 (stereo not drawn) [Compound 13] | – | – | – | – | activation at 1.6 µM (HeLa MKYP cells [1]; Homo sapiens, HeLa): 52.5%; Toxicity (% positive for DAPI takeup @ 50 μM) (HeLa MKYP cells [2]; Table 2): 39.7% |
